Data on seven molecules can be found in ChEMBL document CHEMBL1122667, “Acetylation of some novel hemicholinium compounds by soluble choline acetyltransferase: structure-activity relationships” (J Med Chem, 1984).

The target of data set [1] is T1, Choline O-acetyltransferase (Rattus norvegicus) (UniProt P32738).
T1 sequence (whole entry): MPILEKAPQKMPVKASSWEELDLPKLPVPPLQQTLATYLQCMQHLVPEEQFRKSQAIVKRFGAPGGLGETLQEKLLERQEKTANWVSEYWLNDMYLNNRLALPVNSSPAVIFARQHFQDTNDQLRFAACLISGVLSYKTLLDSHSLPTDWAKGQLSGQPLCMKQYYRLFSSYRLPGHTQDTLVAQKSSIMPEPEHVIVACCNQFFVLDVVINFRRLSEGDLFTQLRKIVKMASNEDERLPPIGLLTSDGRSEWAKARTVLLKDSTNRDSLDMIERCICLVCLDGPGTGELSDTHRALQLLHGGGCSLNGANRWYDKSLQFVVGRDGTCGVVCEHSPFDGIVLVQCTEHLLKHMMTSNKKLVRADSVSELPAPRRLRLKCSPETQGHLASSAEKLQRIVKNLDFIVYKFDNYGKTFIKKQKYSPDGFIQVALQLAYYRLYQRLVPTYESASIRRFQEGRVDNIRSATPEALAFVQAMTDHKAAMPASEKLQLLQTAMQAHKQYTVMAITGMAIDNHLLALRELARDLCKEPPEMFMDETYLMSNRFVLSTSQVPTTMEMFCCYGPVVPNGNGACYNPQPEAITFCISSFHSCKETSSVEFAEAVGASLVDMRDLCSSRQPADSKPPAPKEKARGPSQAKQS
Kind of data set: Rate of acetylation of 13.0+/-1.1 umol compound by 1 g of choline acetyltransferase (ChAc) by incubating for 10 minutes at 37 degrees Centigrade. On the set-up: reference not given here.

Substrate in data set [2]: C[N+](C)(C)CCO
In words: (§1) Apparent Michaelis-Menten Constant (KM) for the acetylation of compound was calculated from Linewear-Burke plots by incubating for 10 minutes at 37 degrees Centigrade.

Substrate in data set [3]: C[N+]1(C)CCOC(O)(c2ccc(-c3ccc(C4(O)C[N+](C)(C)CCO4)cc3)cc2)C1
The data set is described as §1.

Substrate in data set [4]: C[N+]1(C)CCOC(O)(c2ccc(CCCc3ccc(C4(O)C[N+](C)(C)CCO4)cc3)cc2)C1
The data set is described as §1.

For orientation: Km means the substrate concentration at which the rate is half of its maximum.

Take `C[N+]1(C)CCOC(O)(c2ccc(CCc3ccc(C4(O)C[N+](C)(C)CCO4)cc3)cc2)C1` (centres undefined): the Acetylation in data set [1] amounted to 3%. On the same count and under the same terms, the result for `C[N+]1(C)CCOC(O)(c2ccc(-c3ccc(C4(O)C[N+](C)(C)CCO4)cc3)cc2)C1` (centres undefined) reads 28%. On the same count and under the same terms, to `C[N+](C)(C)CCO` belongs 100%. `C[N+]1(C)CCOC(O)(c2ccc(CCCCc3ccc(C4(O)C[N+](C)(C)CCO4)cc3)cc2)C1` (centres undefined): the Acetylation in data set [1] was found to be 5%. In turn, `C[N+]1(C)CCOC(O)(c2ccc(CCCc3ccc(C4(O)C[N+](C)(C)CCO4)cc3)cc2)C1` (centres undefined) displayed an Acetylation in data set [1] of 28%. In data set [1], `C[N+]1(C)CCOC(O)(c2ccc(Cc3ccc(C4(O)C[N+](C)(C)CCO4)cc3)cc2)C1` (centres undefined) displayed an Acetylation of 4%.

B1: Choline O-acetyltransferase (Rattus norvegicus), P32738 (protein)
chain: T1 sequence (whole entry)
Turning to B1, the Michaelis constant (Km) in data set [2] is 290 µM; in data set [3], 1210 µM; in data set [4], 1270 µM.
